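Protocol summary: plate cells (96-well), add compound at 5 concentrations, incubate 48 h, interpolate endpoints linearly. GI50 = concentration required for 50% inhibition of growth.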 Calls of active or inactive are those of the source. Cut-off read from the data, not from the text of the source: active = GI50 up to about 1.1 µM and inactive = higher.
Tests used:
Test in all cases: inhibition of tumour cell growth, NCI panel, 48 h
[1] = system: 786-0
[2] = system: A498
[3] = system: A549
[4] = system: ACHN
[5] = system: BT-549
[6] = system: CAKI-1
[7] = system: CCRF-CEM
[8] = system: COLO 205
[9] = system: DU-145
[10] = system: EKVX
[11] = system: HCC 2998
[12] = system: HCT-116
[13] = system: HCT-15
[14] = system: HL-60
[15] = system: HOP-62
[16] = system: HOP-92
[17] = system: HT-29
[18] = system: IGROV-1
[19] = system: K562
[20] = system: KM12
[21] = system: LOX IMVI
[22] = system: M14
[23] = system: MCF7
[24] = system: MDA-MB-231
[25] = system: MDA-MB-435
[26] = system: MDA-N
[27] = system: MOLT-4
[28] = system: NCI-H226
[29] = system: NCI-H23
[30] = system: NCI-H460
[31] = system: NCI-H522
[32] = system: NCI/ADR-RES
[33] = system: OVCAR-3
[34] = system: OVCAR-4
[35] = system: OVCAR-5
[36] = system: OVCAR-8
[37] = system: PC-3
[38] = system: RXF 393
[39] = system: SF-268
[40] = system: SF-295
[41] = system: SF-539
[42] = system: SK-MEL-28
[43] = system: SK-MEL-2
[44] = system: SK-MEL-5
[45] = system: SK-OV-3
[46] = system: SN12C
[47] = system: SNB-19
[48] = system: SNB-75
[49] = system: SW-620
[50] = system: TK-10
[51] = system: U-251
[52] = system: UACC-257
[53] = system: UO-31
[54] = system: T47D
[55] = system: UACC-62

c1ccc(OCc2nnc(CCCCCCCCc3nnc(COc4ccccc4)o3)o2)cc1
GI50 [1]: 47.5 µM (inactive)
GI50 [2]: > 100 µM (inactive)
GI50 [3]: > 100 µM (inactive)
GI50 [4]: > 100 µM (inactive)
GI50 [5]: > 100 µM (inactive)
GI50 [6]: > 100 µM (inactive)
GI50 [7]: > 100 µM (inactive)
GI50 [8]: > 100 µM (inactive)
GI50 [9]: > 100 µM (inactive)
GI50 [10]: > 100 µM (inactive)
GI50 [11]: 28.6 µM (inactive)
GI50 [12]: 63.8 µM (inactive)
GI50 [13]: > 100 µM
GI50 [14]: > 100 µM (inactive)
GI50 [15]: 97.3 µM (inactive)
GI50 [16]: 55.6 µM (inactive)
GI50 [17]: > 100 µM (inactive)
GI50 [18]: > 100 µM (inactive)
GI50 [19]: > 100 µM (inactive)
GI50 [20]: > 100 µM (inactive)
GI50 [21]: > 100 µM (inactive)
GI50 [22]: > 100 µM (inactive)
GI50 [23]: > 100 µM (inactive)
GI50 [24]: 47.6 µM (inactive)
GI50 [25]: > 100 µM (inactive)
GI50 [26]: > 100 µM (inactive)
GI50 [27]: > 100 µM (inactive)
GI50 [28]: > 100 µM (inactive)
GI50 [29]: 65.9 µM (inactive)
GI50 [30]: > 100 µM (inactive)
GI50 [31]: 50.6 µM (inactive)
GI50 [32]: > 100 µM (inactive)
GI50 [33]: 27.8 µM (inactive)
GI50 [34]: > 100 µM (inactive)
GI50 [35]: > 100 µM (inactive)
GI50 [36]: 28.9 µM (inactive)
GI50 [37]: > 100 µM (inactive)
GI50 [38]: 13.2 µM (inactive)
GI50 [39]: 99.5 µM (inactive)
GI50 [40]: > 100 µM (inactive)
GI50 [41]: 32.2 µM (inactive)
GI50 [42]: > 100 µM (inactive)
GI50 [43]: > 100 µM (inactive)
GI50 [44]: > 100 µM (inactive)
GI50 [45]: 32.8 µM (inactive)
GI50 [46]: > 100 µM (inactive)
GI50 [47]: 73.8 µM (inactive)
GI50 [48]: 28.1 µM (inactive)
GI50 [49]: > 100 µM (inactive)
GI50 [50]: > 100 µM (inactive)
GI50 [51]: 32.2 µM (inactive)
GI50 [52]: > 100 µM (inactive)
GI50 [53]: > 100 µM (inactive)

CC(=O)/C(=C/NC(=S)c1ccncc1)C(=O)Nc1ccccc1C
GI50 [1]: > 100 µM (inactive)
GI50 [2]: > 100 µM (inactive)
GI50 [3]: > 100 µM (inactive)
GI50 [4]: > 100 µM (inactive)
GI50 [5]: > 100 µM (inactive)
GI50 [6]: > 100 µM (inactive)
GI50 [8]: > 100 µM (inactive)
GI50 [9]: > 100 µM (inactive)
GI50 [10]: > 100 µM (inactive)
GI50 [11]: > 100 µM (inactive)
GI50 [12]: > 100 µM (inactive)
GI50 [13]: > 100 µM
GI50 [14]: > 100 µM (inactive)
GI50 [15]: > 100 µM (inactive)
GI50 [16]: > 100 µM (inactive)
GI50 [17]: > 100 µM (inactive)
GI50 [18]: > 100 µM (inactive)
GI50 [20]: > 100 µM (inactive)
GI50 [21]: > 100 µM (inactive)
GI50 [22]: > 100 µM (inactive)
GI50 [23]: > 100 µM (inactive)
GI50 [24]: > 100 µM (inactive)
GI50 [25]: > 100 µM (inactive)
GI50 [26]: > 100 µM (inactive)
GI50 [28]: > 100 µM (inactive)
GI50 [29]: > 100 µM (inactive)
GI50 [30]: > 100 µM (inactive)
GI50 [32]: > 100 µM (inactive)
GI50 [33]: > 100 µM (inactive)
GI50 [34]: > 100 µM (inactive)
GI50 [35]: > 100 µM (inactive)
GI50 [36]: > 100 µM (inactive)
GI50 [38]: > 100 µM (inactive)
GI50 [39]: > 100 µM (inactive)
GI50 [40]: > 100 µM (inactive)
GI50 [41]: > 100 µM (inactive)
GI50 [42]: > 100 µM (inactive)
GI50 [43]: > 100 µM (inactive)
GI50 [44]: > 100 µM (inactive)
GI50 [45]: > 100 µM (inactive)
GI50 [46]: > 100 µM (inactive)
GI50 [47]: > 100 µM (inactive)
GI50 [48]: > 100 µM (inactive)
GI50 [49]: > 100 µM (inactive)
GI50 [54]: > 100 µM (inactive)
GI50 [50]: > 100 µM (inactive)
GI50 [51]: > 100 µM (inactive)
GI50 [52]: > 100 µM (inactive)
GI50 [55]: > 100 µM (inactive)
GI50 [53]: > 100 µM (inactive)

— ChEMBL document CHEMBL1201862, “PubChem BioAssay data set” (2004)
